Data on 28 compounds can be found in patent US6750228B1, “Aromatic sulfone hydroxamic acid metalloprotease inhibitor” (priority 1997, dated 2004).

What all share (experiment): biochemical
In one test the target is T1, MMP-1 (Homo sapiens, UniProt P03956).
T1 construct: made in house; host or cells: transfected HT-1080 cells (provided by Dr. Harold Welgus, Washington University)
T1 sequence (P03956 100-469): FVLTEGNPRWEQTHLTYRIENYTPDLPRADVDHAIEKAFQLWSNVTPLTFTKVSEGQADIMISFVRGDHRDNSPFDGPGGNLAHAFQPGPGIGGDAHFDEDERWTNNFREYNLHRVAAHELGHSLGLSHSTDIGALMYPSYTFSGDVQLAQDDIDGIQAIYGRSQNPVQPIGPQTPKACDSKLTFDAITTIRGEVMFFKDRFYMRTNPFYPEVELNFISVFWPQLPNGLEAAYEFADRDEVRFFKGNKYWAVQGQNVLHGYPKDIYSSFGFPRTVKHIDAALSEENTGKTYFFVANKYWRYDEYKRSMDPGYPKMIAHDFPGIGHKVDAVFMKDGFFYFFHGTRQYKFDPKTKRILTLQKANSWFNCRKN
The conditions noted are these: read-out: MMP-1 IC50. The procedure:
(§1) The compounds prepared in the manner described in the Examples above were assayed for activity by an in vitro assay. […] Briefly, 4-aminophenylmercuric acetate (APMA) or trypsin-activated MMPs were incubated with various concentrations of the inhibitor compound at room temperature for 5 minutes.
(§2) The expressed enzyme was purified first over a heparin agarose column and then over a chelating zinc chloride column. The proenzyme was activated by APMA for use in the assay.
(§3) MMP-1 expressed in transfected HT-1080 cells was provided by Dr. Harold Welgus of Washington University, St. Louis, Mo. The enzyme was also activated using APMA and was then purified over a hydroxamic acid column. Dr. Welgus also provided transfected HT-1080 cells that expressed MMP-9. Transfected cells that expressed MMP-2 were provided by Dr. Gregory Goldberg, also of Washington University. Studies with MMP-7 were carried out at pH 7.5 in the presence of 0.02% 2-mercaptoethanol using conditions otherwise similar to those used for the other enzymes. The enzyme was obtaind from a hMMP-7-expressing E. coli clone that was a gift of Dr. Steven Shapiro of Washington University, St. Louis, Mo. Further specifics for preparation and use of these enzymes can be found in the scientific literature describing these enzymes. See, for example, Enzyme Nomenclature, Academic Press, San Diego, Calif. […] The enzyme substrate is a methoxycoumarin-containing polypeptide having the following sequence:
(§4) MCA-ProLeuGlyLeuDpaAlaArgNH2, wherein MCA is methoxycoumarin and Dpa is 3-(2,4-dinitrophenyl)-L-2,3-diaminopropionyl alanine.
(§5) The buffer used for assays contained 100 mM Tris-HCl, 100 mM NaCl, 10 mM CaCl2 and 0.05 percent polyethyleneglycol (23) lauryl ether at a pH value of 7.5. Assays were carried out at room temperature, and dimethyl sulfoxide (DMSO) at a final concentration of 1 percent was used to dissolve inhibitor compound.
(§6) The assayed inhibitor compound in DMSO/buffer solution was compared to an equal amount of DMSO/buffer with no inhibitor as control using Microfluor White Plates (Dynatech). The inhibitor or control solution was maintained in the plate for 10 minutes and the substrate was added to provide a final concentration of 4 μM.
(§7) Inhibition was measured as a reduction in fluorescent intensity as a function of inhibitor concentration, using a Perkin Elmer L550 plate reader. The IC50 values were calculated from those values. The results are set forth in the Inhibition Table A, below, reported in terms of IC50 to three significant figures, where appropriate.

In the next test the target is T2, MMP-13 (Homo sapiens, UniProt P45452).
T2 construct: made in house; host or cells: baculovirus / insect cells
The procedure: as §1, §2, §3, §4, §5, §6, §7

The target in the next test is T3, MMP-2 (Homo sapiens, UniProt P08253).
T3 construct: made in house; provided by Dr. Gregory Goldberg, Washington University
T3 sequence (P08253 110-660): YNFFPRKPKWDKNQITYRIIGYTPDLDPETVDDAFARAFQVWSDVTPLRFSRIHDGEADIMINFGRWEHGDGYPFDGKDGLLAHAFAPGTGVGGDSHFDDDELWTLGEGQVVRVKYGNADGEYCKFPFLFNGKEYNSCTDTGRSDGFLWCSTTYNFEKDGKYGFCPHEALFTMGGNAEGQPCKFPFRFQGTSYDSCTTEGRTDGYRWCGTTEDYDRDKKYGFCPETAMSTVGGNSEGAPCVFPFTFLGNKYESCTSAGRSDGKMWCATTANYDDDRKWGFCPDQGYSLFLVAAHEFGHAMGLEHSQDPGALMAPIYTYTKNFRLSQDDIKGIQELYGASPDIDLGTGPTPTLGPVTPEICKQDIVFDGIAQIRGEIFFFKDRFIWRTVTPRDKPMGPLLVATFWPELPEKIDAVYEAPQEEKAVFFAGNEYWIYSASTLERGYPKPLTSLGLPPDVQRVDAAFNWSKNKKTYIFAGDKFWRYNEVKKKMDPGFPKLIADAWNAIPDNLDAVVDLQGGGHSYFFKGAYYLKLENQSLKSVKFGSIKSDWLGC
Here is the method: as §1, §2, §3, §4, §5, §6, §7

Where [1] appears, read: recombinant human MMP-1, MCA peptide substrate 4 μM, pH 7.5, room temperature.
Where [2] appears, read: recombinant human MMP-13, MCA peptide substrate 4 μM, pH 7.5, room temperature, read-out: MMP-13 IC50.
Setting [3] is: recombinant human MMP-2, MCA peptide substrate 4 μM, pH 7.5, room temperature, read-out: MMP-2 IC50.

One may read the IC50 as the concentration that inhibits the measured activity by half.

The structures appear in SMILES notation. Like-named read-outs stand apart in the source and are kept apart here. Bounds are passed on as bounds.

As to `O=C(C1CCN(c2ccc(S(=O)(=O)C3(C(=O)NO)CCOCC3)cc2)CC1)N1CCN(c2cnccn2)CC1` [Example 40], the IC50 at MMP-1 is greater than 10000 nM; on MMP-13 (MMP-13 IC50 (nM), recombinant human MMP-13, MCA peptide substrate 4 μM, pH 7.5, room temperature), 26.8 nM; against MMP-2 (MMP-2 IC50 (nM)) it was 900 nM.
As to `O=C(C1CCN(c2ccc(S(=O)(=O)C3(C(=O)NO)CCOCC3)cc2)CC1)N1CCN(c2ncc(C(F)(F)F)cc2Cl)CC1` [Example 41], the IC50 was greater than 10000 nM on MMP-1, 70 nM at MMP-13 (read-out: MMP-13 IC50) and 5400 nM on MMP-2 (read-out: MMP-2 IC50).
In the case of `O=C(C1CCN(c2ccc(S(=O)(=O)C3(C(=O)NO)CCOCC3)cc2)CC1)N1CCN(CCN2CCOCC2)CC1` [Example 42], the IC50 at MMP-1 is greater than 10000 nM; at MMP-13 (read-out: MMP-13 IC50) it was 82.5 nM; on MMP-2 (read-out: MMP-2 IC50) it was greater than 10000 nM.
`O=C(C1CCN(c2ccc(S(=O)(=O)C3(C(=O)NO)CCOCC3)cc2)CC1)N1CCN(c2cccc(Cl)c2)CC1` [Example 43]: the IC50 on MMP-1 is greater than 10000 nM; at MMP-13 (read-out: MMP-13 IC50) it was 17.9 nM; on MMP-2 (read-out: MMP-2 IC50) it was 5000 nM.
For `O=C(C1CCN(c2ccc(S(=O)(=O)C3(C(=O)NO)CCOCC3)cc2)CC1)N1CCC(CO)CC1` [Example 44], the IC50 was greater than 10000 nM on MMP-1, 19 nM on MMP-13 (read-out: MMP-13 IC50) and 1050 nM on MMP-2 (read-out: MMP-2 IC50).
For `CC1CCCN(C(=O)C2CCN(c3ccc(S(=O)(=O)C4(C(=O)NO)CCOCC4)cc3)CC2)C1` (stereo not drawn) [Example 47] the same measures were greater than 10000 nM, 11.4 nM and 6000 nM.
For `O=C(C1CCN(c2ccc(S(=O)(=O)C3(C(=O)NO)CCOCC3)cc2)CC1)N1CCN(c2nccc(C(F)(F)F)n2)CC1` [Example 49], in that order: greater than 10000 nM, 20 nM and 6500 nM.
`CN(C)CCN(C)C(=O)C1CCN(c2ccc(S(=O)(=O)C3(C(=O)NO)CCOCC3)cc2)CC1` [Example 51]: the IC50 on MMP-1 (setting [1]) was greater than 10000 nM; on MMP-13 (setting [2]), 370 nM; on MMP-2 (setting [3]) it was 7000 nM.
For `CCN(Cc1ccncc1)C(=O)C1CCN(c2ccc(S(=O)(=O)C3(C(=O)NO)CCOCC3)cc2)CC1` [Example 52], in that order: greater than 10000 nM, 90 nM and 1900 nM.
For `O=C(NCC1CC1)C1CCN(c2ccc(S(=O)(=O)C3(C(=O)NO)CCOCC3)cc2)CC1` [Example 53], in that order: greater than 10000 nM, 28.9 nM and 1400 nM.
For `CC1CC(C)CN(C(=O)C2CCN(c3ccc(S(=O)(=O)C4(C(=O)NO)CCOCC4)cc3)CC2)C1` (stereo not drawn) [Example 54], in that order: greater than 10000 nM, 40 nM and 5700 nM.
Take `CCCNC(=O)C1CCN(c2ccc(S(=O)(=O)C3(C(=O)NO)CCOCC3)cc2)CC1` [Example 57]: the IC50 at MMP-1 (setting [1]) was greater than 10000 nM; at MMP-13 (setting [2]), 80 nM; at MMP-2 (setting [3]), 2700 nM.
For `CC(C)CN(C)C(=O)C1CCN(c2ccc(S(=O)(=O)C3(C(=O)NO)CCOCC3)cc2)CC1` [Example 58], the IC50 was greater than 10000 nM on MMP-1 (setting [1]), 22 nM on MMP-13 (setting [2]) and 4000 nM at MMP-2 (setting [3]).
For `CN(C(=O)C1CCN(c2ccc(S(=O)(=O)C3(C(=O)NO)CCOCC3)cc2)CC1)c1ccccc1` [Example 60] the same measures were greater than 10000 nM, 13.9 nM and 3700 nM.
For `O=C(Nc1ccncc1)C1CCN(c2ccc(S(=O)(=O)C3(C(=O)NO)CCOCC3)cc2)CC1` [Example 62] the same measures were greater than 10000 nM, 14 nM and 690 nM.
On to `O=C(Nc1ccccc1OC(F)(F)F)C1CCN(c2ccc(S(=O)(=O)C3(C(=O)NO)CCOCC3)cc2)CC1` [Example 63], for which the IC50 at MMP-1 (setting [1]) is greater than 10000 nM; on MMP-13 (setting [2]), 20 nM; on MMP-2 (setting [3]), 2900 nM.
Regarding `O=C(Nc1cccc(OC(F)(F)F)c1)C1CCN(c2ccc(S(=O)(=O)C3(C(=O)NO)CCOCC3)cc2)CC1` [Example 68], the IC50 is greater than 10000 nM on MMP-1 (setting [1]), 13 nM at MMP-13 (setting [2]) and 1800 nM at MMP-2 (setting [3]).
With `O=C(Nc1cccc(Cl)c1)C1CCN(c2ccc(S(=O)(=O)C3(C(=O)NO)CCOCC3)cc2)CC1` [Example 70], the IC50 was greater than 10000 nM on MMP-1 (setting [1]), 10.6 nM on MMP-13 (setting [2]) and 700 nM at MMP-2 (setting [3]).
For `O=C(Nc1cccc(F)c1)C1CCN(c2ccc(S(=O)(=O)C3(C(=O)NO)CCOCC3)cc2)CC1` [Example 71] the same measures were greater than 10000 nM, 7.7 nM and 270 nM.
On to `COc1cccc(NC(=O)C2CCN(c3ccc(S(=O)(=O)C4(C(=O)NO)CCOCC4)cc3)CC2)c1` [Example 72], for which the IC50 was greater than 10000 nM at MMP-1 (setting [1]), 13 nM at MMP-13 (setting [2]) and 800 nM at MMP-2 (setting [3]).
For `O=C(Nc1ccc(OC(F)(F)F)cc1)C1CCN(c2ccc(S(=O)(=O)C3(C(=O)NO)CCOCC3)cc2)CC1` [Example 73], in that order: greater than 10000 nM, 15.4 nM and 2000 nM.
For `O=C(Nc1ccncn1)C1CCN(c2ccc(S(=O)(=O)C3(C(=O)NO)CCOCC3)cc2)CC1` [Example 74] the same measures were greater than 10000 nM, 9 nM and 80 nM.
For the compound `O=C(Nc1ccc(F)cc1)C1CCN(c2ccc(S(=O)(=O)C3(C(=O)NO)CCOCC3)cc2)CC1` [Example 75], the figures for the IC50 on MMP-1 (setting [1]), at MMP-13 (setting [2]) and at MMP-2 (setting [3]) were greater than 10000 nM, 11.5 nM and 500 nM, respectively.
For `COc1ccc(NC(=O)C2CCN(c3ccc(S(=O)(=O)C4(C(=O)NO)CCOCC4)cc3)CC2)cc1` [Example 76] the same measures were greater than 10000 nM, 9 nM and 250 nM.
For `CN(C)c1cccc(NC(=O)C2CCN(c3ccc(S(=O)(=O)C4(C(=O)NO)CCOCC4)cc3)CC2)c1` [Example 77] the same measures were greater than 10000 nM, 75 nM and 3400 nM.
For `CN(C)c1ccc(NC(=O)C2CCN(c3ccc(S(=O)(=O)C4(C(=O)NO)CCOCC4)cc3)CC2)cc1` [Example 78] the same measures were greater than 10000 nM, 11.7 nM and 730 nM.
Regarding `COc1ccccc1C1CCN(c2ccc(S(=O)(=O)C3(C(=O)NO)CCOCC3)cc2)CC1` [Example 79], the IC50 on MMP-1 was greater than 10000 nM; on MMP-13 (read-out: MMP-13 IC50), 20 nM; at MMP-2 (MMP-2 IC50 (nM)) it was 2000 nM.
In the case of `COc1ccc(C(=O)C2CCN(c3ccc(S(=O)(=O)C4(C(=O)NO)CCOCC4)cc3)CC2)cc1` [Example 80], the IC50 is greater than 10000 nM at MMP-1 (setting [1]), 4.1 nM at MMP-13 (setting [2]) and 562 nM at MMP-2 (setting [3]).
